Reference: patent US10544090B2, “Anthraquinone analogs and methods of making and using thereof” (Georgia State University Research Foundation, Inc., priority 2012, dated 2020)

Columns and labels:
Cos7 = experiment: Cytotoxicity against cancer cell lines (Example 5), Cos7; type: cell-based; conditions: Tables 5-12
Method: (§1) All of the compounds synthesized were tested against a number of cancer cell lines: Hela KB, Cos7, Molt4, K562, EU1, and T98G. The cancer cell lines vary from leukemia cell lines (Molt4, EU, K562) to solid-state tumor cell lines (Hela, KB, Cos7) and the drug resistant cell lines (T98G).

KB = experiment: Cytotoxicity against cancer cell lines (Example 5), KB; type: cell-based; conditions: Tables 5-12
Method: as §1

HeLa [1] = experiment: Cytotoxicity against cancer cell lines (Example 5), Hela; type: cell-based; conditions: Tables 5-12
Method: as §1

MOLT4 [2] = experiment: Cytotoxicity against cancer cell lines (Example 5), Molt4; type: cell-based
Method: as §1

T98G = experiment: Cytotoxicity against cancer cell lines (Example 5), T98G; type: cell-based; conditions: Tables 5-12; drug resistant cell line
Method: as §1

K562 = experiment: Cytotoxicity against cancer cell lines (Example 5), K562; type: cell-based; conditions: Tables 5-12
Method: as §1

EU1 = experiment: Cytotoxicity against cancer cell lines (Example 5), EU1; type: cell-based; conditions: Tables 5-12
Method: as §1

HeLa [3] = experiment: MTT cytotoxicity evaluation of series 1 and 2 rhein analogues, HeLa (Tables 3, 4); type: cell-based; conditions: Homo sapiens, HeLa; MTT; Tables 3 and 4; read-out: IC50 (μM) against HeLa
MOLT4 [4] = experiment: MTT cytotoxicity evaluation of series 1 and 2 rhein analogues, MOLT4 (Tables 3, 4); conditions: Homo sapiens, MOLT-4, read-out: IC50 (μM) against MOLT4
[5] = Tables 5-12, read-out: IC50 Molt4

Structure (SMILES) | IC50 (Cos7) | IC50 (KB) | IC50 (HeLa [1]) | IC50 (MOLT4 [2]; [5]) | IC50 (T98G) | IC50 (K562) | IC50 (EU1) | IC50 (MOLT4 [2]; cell line not given, matches Table 8 Molt4, read-out: IC50 value) | IC50 (HeLa [3]) | IC50 (MOLT4 [4])
CN1CCN(CC(=O)Nc2cc(O)c3c(c2)C(=O)c2cccc(O)c2C3=O)CC1 [BW-AQ-114] | 2 ± 0.6 µM | 10.2 ± 2.26 µM | 3.9 ± 1 µM | 0.284 ± 0.021 µM | > 12.5 µM | 0.84 ± 0.36 µM | – | – | – | –
COC(=O)c1cc(OCCN=[N+]=[N-])c2c(c1)C(=O)c1cccc(OCCN=[N+]=[N-])c1C2=O [BW-AQ-120] | ~50 µM | > 50 µM | > 12.5 µM | > 1.6 µM | > 12.5 µM | > 6.25 µM | – | – | – | –
[N-]=[N+]=NCCOc1cccc2c1C(=O)c1c(OCCN=[N+]=[N-])cc(C(=O)O)cc1C2=O [BW-AQ-121] | > 50 µM | > 50 µM | > 12.5 µM | > 1.6 µM | > 12.5 µM | > 6.25 µM | – | – | – | –
[N-]=[N+]=NCCOc1cccc2c1C(=O)c1c(OCCN=[N+]=[N-])cc(C(=O)N=[N+]=[N-])cc1C2=O [BW-AQ-122] | > 50 µM | > 50 µM | > 12.5 µM | > 1.6 µM | > 12.5 µM | > 6.25 µM | – | – | – | –
[N-]=[N+]=NCCOc1cccc2c1C(=O)c1c(OCCN=[N+]=[N-])cc(N)cc1C2=O [BW-AQ-123] | – | 20.5 µM | > 50 µM | > 1.6 µM | > 12.5 µM | > 6.25 µM | – | – | – | –
O=C(CBr)Nc1cc(O)c2c(c1)C(=O)c1cccc(OCc3ccccc3)c1C2=O [BW-AQ-127] | 1.7 ± 0.43 µM | 5.4 ± 2.5 µM | 5.6 ± 0.63 µM | – | 13.8 ± 2.5 µM | 1.95 ± 0.58 µM | 0.084 ± 0.058 µM | 0.028 µM | – | –
COc1cccc2c1C(=O)c1c(OC)cc(NC(=O)C(F)(F)F)cc1C2=O [BW-AQ-132] | > 50 µM | > 50 µM | > 50 µM | > 1.6 µM | > 12.5 µM | > 6.25 µM | – | – | – | –
COc1cccc2c1C(=O)c1c(OC)cc(NC(C)=O)cc1C2=O [BW-AQ-134] | > 50 µM | > 50 µM | > 50 µM | > 1.6 µM | > 50 µM | > 6.25 µM | – | – | – | –
COc1cccc2c1C(=O)c1c(OC)cc(NC(=O)CN=[N+]=[N-])cc1C2=O [BW-AQ-137] | > 50 µM | 23.6 µM | 24.6 µM | > 1.6 µM | > 50 µM | > 6.25 µM | – | – | – | –
COc1cccc2c1C(=O)c1c(OC)cc(NS(=O)(=O)CCl)cc1C2=O [BW-AQ-138] | > 50 µM | > 50 µM | > 50 µM | > 1.6 µM | > 50 µM | > 6.25 µM | – | – | – | –
O=C1c2cccc(O)c2C(=O)c2c(O)cc(-c3cccs3)cc21 [BW-AQ-140] | 2.2 ± 0.41 µM | 3.4 ± 1.02 µM | 3.1 ± 0.68 µM | 0.209 ± 0.044 µM | 13.8 ± 4 µM | 3.2 ± 1.5 µM | 0.69 ± 0.152 µM | – | – | –
COc1cccc2c1C(=O)c1c(OC)cc(N)cc1C2=O [BW-AQ-145] | > 50 µM | > 50 µM | > 50 µM | > 25 µM | > 50 µM | > 25 µM | > 25 µM | – | – | –
CCCOC(=O)c1cc(OCCC)c2c(c1)C(=O)c1cccc(OCCC)c1C2=O [BW-AQ-147] | – | > 50 µM | > 50 µM | > 25 µM | > 50 µM | > 25 µM | > 25 µM | – | – | –
O=C(OCc1ccccc1)c1cc(OCc2ccccc2)c2c(c1)C(=O)c1cccc(OCc3ccccc3)c1C2=O [BW-AQ-148] | > 50 µM | > 50 µM | 18.6 µM | > 25 µM | > 50 µM | > 25 µM | > 25 µM | – | – | –
[N-]=[N+]=NC(=O)c1cc(OCc2ccccc2)c2c(c1)C(=O)c1cccc(OCc3ccccc3)c1C2=O [BW-AQ-149] | > 50 µM | > 50 µM | > 50 µM | > 25 µM | > 50 µM | > 25 µM | > 25 µM | – | – | –
Nc1cc(OCc2ccccc2)c2c(c1)C(=O)c1cccc(OCc3ccccc3)c1C2=O [BW-AQ-150] | 17 µM | > 50 µM | ~50 µM | > 25 µM | > 50 µM | > 25 µM | > 25 µM | – | – | –
C=CCOC(=O)c1cc(OCC=C)c2c(c1)C(=O)c1cccc(OCC=C)c1C2=O [BW-AQ-152] | 12.5 µM | 22.5 µM | 27.6 µM | > 25 µM | 29.3 µM | > 25 µM | > 25 µM | – | – | –
C=CCOc1cccc2c1C(=O)c1c(OCC=C)cc(C(=O)O)cc1C2=O [BW-AQ-153] | > 50 µM | > 50 µM | > 50 µM | > 25 µM | > 50 µM | > 25 µM | > 25 µM | – | – | –
C=CCOc1cccc2c1C(=O)c1c(OCC=C)cc(C(=O)N=[N+]=[N-])cc1C2=O [BW-AQ-154] | 19.4 µM | > 50 µM | 24.3 µM | 6.66 µM | > 50 µM | 19.5 µM | 3 µM | – | – | –

Structure (SMILES) | IC50 (Cos7) | IC50 (KB) | IC50 (HeLa [1]) | IC50 (MOLT4 [2]; [5]) | IC50 (T98G) | IC50 (K562) | IC50 (EU1) | IC50 (MOLT4 [2]; cell line not given, matches Table 8 Molt4, read-out: IC50 value) | IC50 (HeLa [3]) | IC50 (MOLT4 [4])
C=CCOc1cccc2c1C(=O)c1c(OCC=C)cc(N)cc1C2=O [BW-AQ-155] | > 50 µM | 12.5 µM | ~50 µM | > 25 µM | > 50 µM | > 25 µM | > 25 µM | – | – | –
CCOc1cccc2c1C(=O)c1c(OCC)cc(NC(=O)CO)cc1C2=O [BW-AQ-157] | 5 µM | 9.5 µM | 6.35 µM | 0.42 µM | 15.4 µM | 1.8 µM | 0.358 µM | – | – | –
C=CC(=O)Nc1cc(OCC)c2c(c1)C(=O)c1cccc(OCC)c1C2=O [BW-AQ-158] | 8.42 µM | 20.3 µM | 19.7 µM | < 3.2 µM | 21 µM | 10.7 µM | 6 µM | – | – | –
C=CCOc1cccc2c1C(=O)c1c(OCC=C)cc(NC(=O)CCl)cc1C2=O [BW-AQ-161] | > 20 µM | > 20 µM | > 20 µM | > 10 µM | > 50 µM | > 10 µM | > 10 µM | – | – | –
C=CCOc1cccc2c1C(=O)c1c(OCC=C)cc(NC(=O)CI)cc1C2=O [BW-AQ-163] | > 50 µM | 14.7 µM | > 50 µM | > 25 µM | > 50 µM | > 25 µM | > 25 µM | – | – | –
C=CCOc1cccc2c1C(=O)c1c(OCC=C)cc(NC(=O)CN=[N+]=[N-])cc1C2=O [BW-AQ-164] | > 50 µM | > 50 µM | > 50 µM | > 25 µM | > 50 µM | > 25 µM | > 25 µM | – | – | –
CCOc1cccc2c1C(=O)c1c(OCC)cc(NC(=O)CN)cc1C2=O [BW-AQ-166] | – | 18.8 µM | 11 µM | > 25 µM | 37.3 µM | > 25 µM | > 25 µM | – | – | –
CCOc1cccc2c1C(=O)c1c(OCC)cc(NC(=O)CNC)cc1C2=O [BW-AQ-167] | 5.51 µM | 1.54 µM | 0.753 µM | 21.5 µM | 11.2 µM | 2.05 µM | 13.6 µM | – | – | –
COCC(=O)Nc1cc(OC)c2c(c1)C(=O)c1cccc(OC)c1C2=O [BW-AQ-170] | – | > 50 µM | > 50 µM | > 25 µM | > 50 µM | > 25 µM | > 25 µM | – | – | –
COc1cccc2c1C(=O)c1c(OC)cc(NC(=O)C(F)F)cc1C2=O [BW-AQ-171] | – | 50 µM | > 50 µM | > 25 µM | > 50 µM | > 25 µM | > 25 µM | – | – | –
COc1cccc2c1C(=O)c1c(OC)cc(NC(=O)CC#N)cc1C2=O [BW-AQ-172] | – | < 6.25 µM | > 50 µM | > 25 µM | > 50 µM | > 25 µM | > 25 µM | – | – | –
COc1cccc2c1C(=O)c1c(OC)cc(NC(=O)CCCl)cc1C2=O [BW-AQ-173] | – | 50 µM | 50 µM | > 25 µM | > 50 µM | > 25 µM | 25 µM | – | – | –
COc1cccc2c1C(=O)c1c(OC)cc(NC(=O)CCCCl)cc1C2=O [BW-AQ-174] | – | > 50 µM | > 50 µM | > 25 µM | > 50 µM | > 25 µM | > 25 µM | – | – | –
COc1cccc2c1C(=O)c1c(OC)cc(NC(=O)COCc3ccccc3)cc1C2=O [BW-AQ-175] | – | 33.6 µM | > 50 µM | 25 µM | > 50 µM | > 25 µM | 20.5 µM | – | – | –
CCOc1cccc2c1C(=O)c1c(OCC)cc(NC(=O)CCCCl)cc1C2=O [BW-AQ-179] | – | < 6.25 µM | 6.25 µM | 15.3 µM | 50 µM | 10.7 µM | 17.6 µM | – | – | –
CCOc1cccc2c1C(=O)c1c(OCC)cc(NC(=O)COCc3ccccc3)cc1C2=O [BW-AQ-182] | – | > 50 µM | 47.3 µM | 16.8 µM | > 50 µM | > 25 µM | 16.8 µM | – | – | –
CCN(CC)CC(=O)Nc1cc(O)c2c(c1)C(=O)c1cccc(O)c1C2=O [Compound 9a, 1,8-Dihydroxy-3-(2′-diethylamino-acetamido)-anthraquinone] | – | – | – | – | – | – | – | – | 6.1 µM | 3 µM
CN1CCN(CC(=O)Nc2cc(O)c3c(c2)C(=O)c2cccc(O)c2C3=O)CC1 [Compound 9b, 1,8-Dihydroxy-3-(2′-(4″-methylpiperazin-1″-yl)-acetamido)-anthraquinone] | – | – | – | – | – | – | – | – | 5.8 µM | 3.1 µM
